We go through 40 compounds from US7759337B2, “Phthalazine compounds and methods of use” (Amgen Inc., priority 2005, dated 2010).

The assay concerns production of TNF by monocytes activated with bacterial lipopolysaccharide (LPS). Description: Lipopolysaccharide-activated monocyte TNF production assay. Format: cell-based. As to conditions: Homo sapiens; whole blood monocyte assay (LPS induced TNF release). In a few lines:
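Adherent human PBMC-derived monocytes preincubated 60 min with nine two-fold compound dilutions, then stimulated with E. coli K532 LPS (30 ng/mL in the added medium) for 4 h at 37 °C. Supernatant TNF measured by sandwich ELISA; IC50 is the compound concentration halving TNF production, from second-order polynomial fits.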

Compound `Cc1ccc(C(=O)NC2CC2)cc1-c1ccc2c(N3CCN(c4c(C)cccc4C)CC3)nncc2c1` [Example 162, N-cyclopropyl-3-{1-[4-(2,6-dimethylphenyl)piperazin-1-yl]phthalazin-6-yl}-4-methylbenzamide] gave an IC50 of at most 5 µM. In turn, `Cc1ccc(C(N)=O)cc1-c1ccc2c(OC(C)C)nncc2c1` [Example 155, 3-(1-isopropoxyphthalazin-6-yl)-4-methylbenzamide] registered an IC50 of at most 5 µM. On to `Cc1ccc(C(N)=O)cc1-c1ccc2c(NC(C)C)nncc2c1` [Example 179, 3-[1-(isopropylamino)phthalazin-6-yl]-4-methylbenzamide], for which the IC50 is at most 5 µM. The figure for `Cc1ccc(C(=O)NC2CC2)cc1-c1ccc2c(N3CCN[C@@H](C)C3)nncc2c1` [Example 149, N-cyclopropyl-4-methyl-3-{1-[(3S)-3-methylpiperazin-1-yl]phthalazin-6-yl}benzamide] is at most 5 µM; for `Cc1ccc(C(N)=O)cc1-c1ccc2c(-c3ccccc3Cl)nncc2c1` [Example 156, 3-[1-(2-chlorophenyl)phthalazin-6-yl]-4-methylbenzamide] it is at most 5 µM. On to `CNc1noc2c(-c3ccc4c(N[C@@H](C)COC)nncc4c3)c(C)ccc12` [Example 399, N-[(1S)-2-methoxy-1-methylethyl]-6-[6-methyl-3-(methylamino)-1,2-benzisoxazol-7-yl]phthalazin-1-amine], for which the IC50 was at most 5 µM. `C[C@H]1COCCN1c1nncc2cc(-c3c(Cl)ccc4c(NC5CC5)noc34)ccc12` [Example 401, 6-chloro-N-cyclopropyl-7-{1-[(3S)-3-methylmorpholin-4-yl]phthalazin-6-yl}-1,2-benzisoxazol-3-amine] yielded an IC50 of at most 5 µM. Compound `Cc1ccccc1-c1nncc2cc(Oc3cccc(F)c3)ccc12` [Example 355, 6-(3-fluorophenoxy)-1-(2-methylphenyl)phthalazine] yielded an IC50 of at most 5 µM. On to `Cc1ccc(C(N)=O)cc1-c1ccc2c(N3CCS(=O)(=O)CC3)nncc2c1` [Example 127, 3-[1-(1,1-dioxidothiomorpholin-4-yl)phthalazin-6-yl]-4-methylbenzamide], for which the half-inhibitory concentration (IC50) was at most 5 µM. Compound `Cc1ccc(S(=O)(=O)NC2CC2)cc1-c1ccc2c(N3CCOCC3)nncc2c1` [Example 360, N-cyclopropyl-4-methyl-3-(1-morpholin-4-ylphthalazin-6-yl)benzenesulfonamide] returned an IC50 of at most 5 µM. `Cc1cc(F)ccc1-c1nncc2cc(-c3c(C)ccc4c(NC5CC5)noc34)ccc12` [Example 377, N-cyclopropyl-7-[1-(4-fluoro-2-methylphenyl)phthalazin-6-yl]-6-methyl-1,2-benzisoxazol-3-amine] returned a half-maximal inhibitory concentration (IC50) of at most 5 µM. Consider `Cc1ccc(C(=O)NC2CC2)cc1-c1ccc2c(N3CCO[C@@H](CO)C3)nncc2c1` [Example 160, N-cyclopropyl-3-{1-[(2R)-2-(hydroxymethyl)morpholin-4-yl]phthalazin-6-yl}-4-methylbenzamide], for which the IC50 was at most 5 µM. In the case of `CC(=O)N1CCN(c2nncc3cc(-c4cc(C(=O)NC5CC5)ccc4C)ccc23)[C@@H](C)C1` [Example 371, 3-{1-[(2S)-4-acetyl-2-methylpiperazin-1-yl]phthalazin-6-yl}-N-cyclopropyl-4-methylbenzamide], the IC50 was at most 5 µM. `COc1ccc(-c2nncc3cc(-c4cc(C(N)=O)ccc4C)ccc23)c(OC)c1` [Example 226, 3-[1-(2,4-dimethoxyphenyl)phthalazin-6-yl]-4-methylbenzamide] registered an IC50 of at most 5 µM.

The compound `Cc1ccc(C(N)=O)cc1-c1ccc2c(N(C)C3CCCCC3)nncc2c1` [Example 291, 3-{1-[cyclohexyl(methyl)amino]phthalazin-6-yl}-4-methylbenzamide] registered an IC50 of at most 5 µM.

Compound `Cc1ccc(C(=O)NC2CC2)cc1-c1ccc2c(N3CCCC[C@H]3C)nncc2c1` [Example 180, N-cyclopropyl-4-methyl-3-{1-[(2R)-2-methylpiperidin-1-yl]phthalazin-6-yl}benzamide] displayed an IC50 of at most 5 µM. Regarding `Cc1ccc([N+](=O)[O-])cc1-c1ccc2c(N3CCOCC3)nncc2c1` [Example 137, 6-(2-methyl-5-nitrophenyl)-1-morpholin-4-ylphthalazine], the IC50 is at most 5 µM. Compound `COC[C@H](C)Nc1nncc2cc(-c3cc(C(N)=O)ccc3C)ccc12` [Example 190, 3-(1-{[(1S)-2-methoxy-1-methylethyl]amino}phthalazin-6-yl)-4-methylbenzamide] gave an IC50 of at most 5 µM. The figure for `Cc1ccc(C(=O)NC2CC2)cc1-c1ccc2c(N3C[C@@H](C)N[C@@H](C)C3)nncc2c1` [Example 148, N-cyclopropyl-3-{1-[(3R,5S)-3,5-dimethylpiperazin-1-yl]phthalazin-6-yl}-4-methylbenzamide] is at most 5 µM; for `Cc1ccc(C(=O)NC2CC2)cc1-c1ccc2c(NC[C@H]3CCCO3)nncc2c1` [Example 297, N-cyclopropyl-4-methyl-3-(1-{[(2R)-tetrahydrofuran-2-ylmethyl]amino}phthalazin-6-yl)benzamide] it is at most 5 µM. For the compound `Cc1ccccc1-c1nncc2cc(Oc3ccc(F)cc3)ccc12` [Example 340, 6-(4-fluorophenoxy)-1-(2-methylphenyl)phthalazine], the IC50 is at most 5 µM. The figure for `Cc1ccc(Oc2ccc3c(-c4ccccc4Cl)nncc3c2)cc1` [Example 346, 1-(2-chlorophenyl)-6-(4-methylphenoxy)phthalazine] is at most 5 µM; for `Cc1ccc(C(=O)NC2CC2)cc1-c1ccc2c(N3CCNC(=O)C3)nncc2c1` [Example 163, N-cyclopropyl-4-methyl-3-[1-(3-oxopiperazin-1-yl)phthalazin-6-yl]benzamide] it is at most 5 µM; for `CCNc1noc2c(-c3ccc4c(N5CCOC[C@@H]5C)nncc4c3)c(C)ccc12` [Example 384, N-ethyl-6-methyl-7-{1-[(3S)-3-methylmorpholin-4-yl]phthalazin-6-yl}-1,2-benzisoxazol-3-amine] it is at most 5 µM. `Cc1ccc2c(NC3CC3)noc2c1-c1ccc2c(NC(C)C)nncc2c1` [Example 370, 6-[3-(cyclopropylamino)-6-methyl-1,2-benzisoxazol-7-yl]-N-isopropylphthalazin-1-amine] came in with an IC50 of at most 5 µM. `Cc1ccc(-c2nncc3cc(-c4cc(C(N)=O)ccc4C)ccc23)c(Cl)n1` [Example 211, 3-[1-(2-chloro-6-methylpyridin-3-yl)phthalazin-6-yl]-4-methylbenzamide] registered an IC50 of at most 5 µM. The figure for `Cc1ccc(C(=O)NC2CC2)cc1-c1ccc2c(-c3ccc(CC(=O)O)cc3)nncc2c1` [Example 240, [4-(6-{5-[(cyclopropylamino)carbonyl]-2-methylphenyl}phthalazin-1-yl)phenyl]acetic acid] is at most 5 µM; for `CCNC(=O)c1ccc(C)c(-c2ccc3c(NC(C)C)nncc3c2)c1` [Example 117, N-ethyl-3-[1-(isopropylamino)phthalazin-6-yl]-4-methylbenzamide] it is at most 5 µM.

Regarding `COc1ccccc1-c1nncc2cc(Oc3ccc(C)cc3)ccc12` [Example 334, 1-(2-methoxyphenyl)-6-(4-methylphenoxy)phthalazine], the IC50 was at most 5 µM. `Cc1ccc(C(=O)NC2CC2)cc1-c1ccc2c(N[C@H](C)c3ccccc3)nncc2c1` [Example 193, N-cyclopropyl-4-methyl-3-(1-{[(1R)-1-phenylethyl]amino}phthalazin-6-yl)benzamide]: the IC50 was at most 5 µM. With `Cc1ccc(C(=O)NC2CC2)cc1-c1ccc2c(C(=O)NC(C)C)nncc2c1` [Example 70, 6-{5-[(Cyclopropylamino)carbonyl]-2-methylphenyl}-N-isopropylphthalazine-1-carboxamide], the IC50 was at most 5 µM. Regarding `CNc1ccc(-c2nncc3cc(-c4cc(C(=O)NC5CC5)ccc4C)ccc23)c(OC)n1` [Example 206, N-cyclopropyl-3-{1-[2-methoxy-6-(methylamino)pyridin-3-yl]phthalazin-6-yl}-4-methylbenzamide], the IC50 is at most 5 µM. As for `CNc1noc2c(-c3ccc4c(N5CCOC[C@H]5C)nncc4c3)c(C)ccc12` [Example 373, N,6-dimethyl-7-{1-[(3R)-3-methylmorpholin-4-yl]phthalazin-6-yl}-1,2-benzisoxazol-3-amine], the figure is at most 5 µM; as for `Cc1ccc(C(N)=O)cc1-c1ccc2c(N(C)C(C)C)nncc2c1` [Example 292, 3-{1-[isopropyl(methyl)amino]phthalazin-6-yl}-4-methylbenzamide], at most 5 µM. `Cc1ccccc1-c1nncc2cc(-c3c(C)ccc(C(=N)NC4CC4)c3O)ccc12` [Example 378, N-cyclopropyl-2-hydroxy-4-methyl-3-[1-(2-methylphenyl)phthalazin-6-yl]benzenecarboximidamide] showed an IC50 of at most 5 µM.

Compound `Cc1ccc(C(N)=O)cc1-c1ccc2c(-c3ccc(F)cc3Cl)nncc2c1` [Example 222, 3-[1-(2-chloro-4-fluorophenyl)phthalazin-6-yl]-4-methylbenzamide] came in with an IC50 of at most 5 µM.

As for `CCSc1nncc2cc(-c3cc(C(=O)NC4CC4)ccc3C)ccc12` [Example 55, N-cyclopropyl-3-(1-(ethylthio)phthalazin-6-yl)-4-methylbenzamide], the IC50 was at most 5 µM. In turn, `Cc1ccc(C(=O)NC2CC2)cc1-c1ccc2c(-c3ccccc3C(F)(F)F)nncc2c1` [Example 254, N-cyclopropyl-4-methyl-3-{1-[2-(trifluoromethyl)phenyl]phthalazin-6-yl}benzamide] showed an IC50 of at most 5 µM. `Cc1ccccc1-c1nncc2cc(Oc3ccccc3C(=O)NC3CC3)ccc12` [Example 343, N-cyclopropyl-2-{[1-(2-methylphenyl)phthalazin-6-yl]oxy}benzamide] gave an IC50 of at most 5 µM.

Turning to `Cc1ccc(C(=O)NC2CC2)cc1-c1ccc2c(-c3ccc(F)cc3C)nncc2c1` [Example 286, N-cyclopropyl-3-[1-(4-fluoro-2-methylphenyl)phthalazin-6-yl]-4-methylbenzamide], the IC50 is at most 5 µM.
